Our source for the melting point values is patent publication US6372787B1 (dated 2002).

Structures are written as SMILES.

As a reminder, the melting point is the temperature of the solid-liquid transition. Compound `CON=C(C(C)=NN=Cc1ccccc1C(=NOC)C(=O)OC)c1ccc(Cl)cc1` yielded a melting point of 118 to 119 °C.
